Each structure is given as a SMILES string. In brackets after ≈: the same amount, converted by molar mass.

One assay deals with S. aureus ATCC 13709. The experiment in a line: MIC, antibacterial potency, S. aureus. It is filed as cell-based.
A further assay deals with S. pneumoniae ATCC 51916. The experiment in a line: MIC, S. pneumoniae. It is filed as cell-based.
Setting [1] is: S. pneumoniae (Spn52), in µg/mL.

As for `CCc1[nH]c2nc(Sc3cnc4cccnc4c3)nc(N3C[C@@H](N)[C@H](c4ccccc4)C3)c2c1Cl` [700,872], in the assay on S. aureus ATCC 13709 (S. aureus (SA), in µg/mL), the “MIC, SA” value came to 1. The “MIC Spn52” value against S. pneumoniae ATCC 51916 (setting [1]) was determined as 2.
In the case of `CCc1[nH]c2nc(Sc3cnc4nccnc4c3)nc(N3CCCNCC3)c2c1Cl.O=C(O)C(F)(F)F` [700,569], the MIC, SA against S. aureus ATCC 13709 (S. aureus) came out at 8 µg/mL. In the assay on S. pneumoniae ATCC 51916 (S. pneumoniae), this compound yielded an MIC Spn52 of 4 µg/mL.
For `CCc1[nH]c2nc(Sc3cnc4cccnc4c3)nc(N3CC4CNC4C3)c2c1Cl.O=C(O)C(F)(F)F.O=C(O)C(F)(F)F` (stereo not shown) [700,796], in the assay with S. aureus ATCC 13709 (S. aureus (SA), in µg/mL), the “MIC, SA” value is recorded as “<=0.5”. Besides, in the assay on S. pneumoniae ATCC 51916 (setting [1]), the “MIC Spn52” value amounted to 1.
In the same order, the values of `CCc1[nH]c2nc(Sc3cnc4c(N)nc(CN5CCOCC5)nc4c3)nc(N3CC[C@@H](N)C3)c2c1Cl` [700,812] are 4 and 4.
The corresponding values for `CCc1[nH]c2nc(Sc3cncnc3)nc(N3CC(CN)C3)c2c1Cl` [700,786] are 16 and 32.
As to `CCc1[nH]c2nc(Sc3cnc4nccnc4c3)nc(N3CC[C@H](NC)C3)c2c1Cl.O=C(O)C(F)(F)F` [700,549], the MIC, SA with S. aureus ATCC 13709 (S. aureus) is 4 µg/mL. Also, the MIC Spn52 against S. pneumoniae ATCC 51916 (S. pneumoniae) stood at 4 µg/mL.
`CCc1[nH]c2nc(Sc3cnc4nccnc4c3)nc(N3CC(Oc4ccc(OC)cc4)C3)c2c1Cl.O=C(O)C(F)(F)F` [700,668] showed an MIC, SA in the assay with S. aureus ATCC 13709 (S. aureus) of 8 µg/mL. Moreover, the MIC Spn52 in the assay on S. pneumoniae ATCC 51916 (S. pneumoniae) was greater than 64 µg/mL.
The corresponding values for `CCc1[nH]c2nc(Sc3cnc4nccnc4c3)nc(N3CC(N(C)C)C3)c2c1Cl.O=C(O)C(F)(F)F.O=C(O)C(F)(F)F` [700,603] are 4 µg/mL and 8 µg/mL.
The corresponding values for `CCc1[nH]c2nc(Sc3ccc4cc(C(=O)OC)cnc4c3)nc(N3CC[C@@H](N)C3)c2c1Cl` [700,698] are no more than 0.5 µg/mL and 8 µg/mL (≈ 16.6 µM).
As to `CCc1[nH]c2nc(Sc3cc(Cl)c4c(N)nc(C)nc4c3)nc(N3CC[C@@H](N)C3)c2c1Cl` [700,865], in the assay with S. aureus ATCC 13709 (S. aureus (SA), in µg/mL), the “MIC, SA” value turned out to be 1. For the same compound, the “MIC Spn52” value in the assay with S. pneumoniae ATCC 51916 (setting [1]) is “<=0.5”.
For `CCc1[nH]c2nc(Cc3cccnc3)nc(N3CCC(CN)CC3)c2c1Cl` [700,585], the MIC, SA with S. aureus ATCC 13709 (S. aureus) was greater than 64 µg/mL. Besides, the MIC Spn52 in the assay on S. pneumoniae ATCC 51916 (S. pneumoniae) was greater than 64 µg/mL.
`CCc1[nH]c2nc(Nc3cnc4c(c3)nnn4C(C)C)nc(OC)c2c1Cl.O=C(O)C(F)(F)F` [700,550] gave an MIC, SA against S. aureus ATCC 13709 (S. aureus) of 1 µg/mL. This compound also registered an MIC Spn52 against S. pneumoniae ATCC 51916 (S. pneumoniae) of 8 µg/mL.
On to `CCc1[nH]c2nc(Sc3nc(C(=O)O)cs3)nc(N3CCCC(CO)C3)c2c1Cl.O=C(O)C(F)(F)F` (stereo not shown) [700,408], for which the MIC, SA in the assay with S. aureus ATCC 13709 (S. aureus) is greater than 64 µg/mL. In the assay on S. pneumoniae ATCC 51916 (S. pneumoniae), this compound gave an MIC Spn52 greater than 64 µg/mL.
In the case of `CCc1[nH]c2nc(Sc3cnc4nccnc4c3)nc(N3CC(N(C)C(=O)OC(C)(C)C)C3)c2c1Cl.O=C(O)C(F)(F)F` [700,601], the MIC, SA against S. aureus ATCC 13709 (S. aureus) was no more than 0.5 µg/mL. Further, the MIC Spn52 against S. pneumoniae ATCC 51916 (S. pneumoniae) amounted to 2 µg/mL.
In the same order, the values of `CCc1[nH]c2nc(Sc3cnc4nccnc4c3)nc(N3CC(CNC(=O)C4CCCO4)C3)c2c1Cl` (stereo not shown) [700,522] are no more than 0.5 µg/mL and 2 µg/mL (≈ 3.81 µM).
The corresponding values for `CCc1[nH]c2nc(Sc3nc(C(=O)O)cs3)nc(N(C)C)c2c1Cl.O=C(O)C(F)(F)F` [700,407] are greater than 64 µg/mL and greater than 64 µg/mL.
Compound `Cc1[nH]c2nc(Sc3cnc4cccnc4n3)nc(N3CC(O)C3)c2c1C` [700,351] returned an MIC, SA in the assay with S. aureus ATCC 13709 (S. aureus) greater than 64 µg/mL. In the assay on S. pneumoniae ATCC 51916 (S. pneumoniae), the MIC Spn52 is greater than 64 µg/mL.
On to `CCc1[nH]c2nc(Sc3ccc4c(N5CC[C@@H](N)C5)ncnc4c3)nc(N3CC[C@@H](N)C3)c2c1Cl` [700,903], for which the “MIC, SA” value against S. aureus ATCC 13709 (S. aureus (SA), in µg/mL) is reported as 32. The “MIC Spn52” value against S. pneumoniae ATCC 51916 (setting [1]) stood at 64.
Turning to `CCOc1ccc(Nc2nc(OCC)c3c(Br)c(CC)[nH]c3n2)cn1.O=C(O)C(F)(F)F` [700,417], the MIC, SA against S. aureus ATCC 13709 (S. aureus) worked out at 1 µg/mL. In addition, the MIC Spn52 with S. pneumoniae ATCC 51916 (S. pneumoniae) turned out to be 16 µg/mL.
In the assay with S. aureus ATCC 13709 (S. aureus), `CCc1[nH]c2nc(Sc3cnc4nccnc4c3)nc(N3CC(NC(=O)CNC4CCOC4=O)C3)c2c1Cl.O=C(O)C(F)(F)F` (stereo not shown) [700,505] displayed an MIC, SA of 4 µg/mL. The MIC Spn52 against S. pneumoniae ATCC 51916 (S. pneumoniae) turned out to be 32 µg/mL.
The corresponding values for `CCc1[nH]c2nc(Sc3cnc4c(C#N)cnn4c3)nc(N3CC[C@@H](N)C3)c2c1Cl` [700,718] are 4 µg/mL (≈ 9.09 µM) and 8 µg/mL (≈ 18.2 µM).
`CCc1[nH]c2nc(Sc3ccc4c(N5CC[C@@H](N)C5)cc(C(=O)O)nc4c3)nc(N3CC[C@@H](N)C3)c2c1Cl` [700,825]: the “MIC, SA” value against S. aureus ATCC 13709 (S. aureus (SA), in µg/mL) is given as 64. In addition, in the assay with S. pneumoniae ATCC 51916 (setting [1]), the “MIC Spn52” value is given as greater than 64.
Turning to `CCc1[nH]c2nc(Sc3cc(=O)n(CC(=O)O)c(=O)[nH]3)nc(N3CC(O)C3)c2c1Br` [700,402], the MIC, SA against S. aureus ATCC 13709 (S. aureus) was greater than 64 µg/mL. The MIC Spn52 against S. pneumoniae ATCC 51916 (S. pneumoniae) was greater than 64 µg/mL.
`CCc1[nH]c2nc(Nc3cnc4c(c3)nnn4C(C)C)nc(N3CC(O)C3)c2c1Cl.O=C(O)C(F)(F)F` [700,525]: in the assay with S. aureus ATCC 13709 (S. aureus), the MIC, SA was greater than 64 µg/mL. This compound returned an MIC Spn52 against S. pneumoniae ATCC 51916 (S. pneumoniae) greater than 64 µg/mL.
As for `CCc1[nH]c2nc(Sc3cnc(C#N)c(F)c3)nc(N3CC(O)C3)c2c1Cl.O=C(O)C(F)(F)F.O=C(O)C(F)(F)F` [700,422], in the assay with S. aureus ATCC 13709 (S. aureus), the MIC, SA was greater than 64 µg/mL. Besides, the MIC Spn52 in the assay on S. pneumoniae ATCC 51916 (S. pneumoniae) is greater than 64 µg/mL.
With `CCc1[nH]c2nc(Sc3ccc4nc(C)cc(C(N)=O)c4c3)nc(C3CC[C@@H](N)C3)c2c1Cl` (stereo partly shown) [700,862], the “MIC, SA” value in the assay on S. aureus ATCC 13709 (S. aureus (SA), in µg/mL) is reported as greater than 64. Moreover, in the assay with S. pneumoniae ATCC 51916 (setting [1]), the “MIC Spn52” value was 32.

For the origin of these results see patent publication US10047105B2, “Gyrase inhibitors” (Merck Sharp & Dohme Corp., priority 2009, dated 2018).
